“Also recorded” adds a separate entry of the source.

For data set [1] the following is noted: dosage and administration regimes used; cited from earlier work.
For data set [2], the system named is activity-based anorexia (ABA) mice. The note with it: temporal (3 days); cited from earlier work.
In data set [3] the test system is TET2. Put plainly: TET2 protein in human MDMs. The class given is cell-based. The following applies: 24 h. Here is the method:
(§1) Bobcat339 Treatment of Cultured Cells Bobcat339 powder (Sigma-Aldrich, SML2611) was freshly dissolved in DMSO at a concentration of 5 mM and filtered through a 0.22 micron. Cells grown at a density of 80-90% were incubated in growth media with vehicle (DMSO) or Bobcat339 at a final concentration of 10 μM for 24 h, followed by RNA and protein extraction.
For cultured MDMs, cells were primed with CM-Endo or TGF-β1 (PeproTech, 100-21) for 36-48 h (to increase TET3 expression) before Bobcat339 treatment.
Cells were homogenized in situ using a pipette tip in 2×SDS-sample buffer with 10% β-mercaptoethanol at RT followed by heating at 100 °C for 5 min with occasional vortexing. The samples were loaded onto a 4-15% gradient SDS gel (Bio-rad, 456-8086) (10 μL/well) and transferred to nitrocellulose membranes, followed by Western blot analysis. The antibodies used were anti-TET3 (diluted at 1:1000, GeneTex, GTX121453 for human; diluted at 1:1000, Active Motif, 61395 for mouse), anti-TET2 (diluted at 1:1000, Proteintech, 21207-1-AP for human/mouse), anti-TGF-β1 (diluted at 1:1000, Abcam, ab215715 for human), anti-Lin28A (diluted at 1:1000, Cell Signaling, 3978S), and HRP-conjugated anti-GAPDH (dilution 1:5000; Proteintech, HRP-60004). The secondary antibody was HRP-linked Anti-rabbit IgG (dilution 1:10,000; Rockland, 611-1322).

The subject of data set [4] is Tet3 mRNA. Put plainly: Tet3/Tet2 mRNA in RAW 264.7 cells. The class given is cell-based, mouse. The following applies: RAW 264.7, 10 μM, 24 h. Here is the method:
For siRNA transfection in a 24-well plate scale of Raw 264.7 cells, 10 pmol of NT siRNA (AM4636, Ambion) or Tet3 siRNA (4390815/s101483, Ambion) was mixed with 100 μL of OPTI-MEM (Gibco, 31985-070) by gentle pipetting. In parallel, 3 μL of Lipofectamine RNAiMAX (Invitrogen, 13778-150) was mixed with 100 μL of OPTI-MEM by gentle pipetting. Following 5 min of incubation at RT, the two were combined and the resulting 200 μL of transfection solution was added to each well of cells. After 24 h of incubation at […] in a 5% humidified CO2 tissue culture incubator, 300 μL of growth media was added and incubation was continued until cell harvesting.
as §1
Total RNAs were extracted from cells using PureLink RNA Mini Kit. 0.5-1 μg total RNA was reverse transcribed to cDNA in a reaction volume of 20 μL using PrimeScript RT Reagent Kit. Real-time quantitative PCR was performed in a 15 μL reaction volume containing 0.5-1 μL of cDNA using SsoAdvanced Universal SYBR Green Supermix in a Bio-Rad iCycler. Gene expression levels were normalized against RPLP0.

Data set [5] is described as follows: Energy expenditure and feeding of mice given Bobcat339. It is filed as in vivo, mouse.
For data set [6], the system named is TET2. Put plainly: TET2 expression in the ARC of mice. The following applies: 2.5 mg/kg i.p., two days. It is filed as in vivo, mouse. The protocol:
To test whether Bobcat339 affects TET3 protein expression in AgRP neurons, Agrp-IRES-Cre::LSL-Cas9-GFP mice with GFP expression specifically in AgRP neurons were intraperitoneally injected with vehicle or Bobcat339 at 2.5 mg/kg, followed by isolation of ARCs under fed conditions (9:00-11:00) two days later. This dose was chosen based on the dose response studies. TET2 expression was widespread but was negligible in AgRP neurons.
Bobcat339 powder (Sigma-Aldrich, SML2611) was freshly dissolved in DMSO (vehicle) at a concentration of 50 mg/mL and filtered through a 0.22 micron. It was further diluted with 1×PBS to a final concentration of 0.5 mg/mL before injections. Mice were injected intraperitoneally with Bobcat339 at 1 mg/kg, 2.5 mg/kg, or 4 mg/kg.
The immunofluorescence for brain slices was conducted using previous methods (18). In brief, postfixed sections were cut into 40-μm-thick sections, followed by 5 times washing. […] The sections were coverslipped and scoped using a Keyence BZ-X700 fluorescence microscope. The fluorescence signals from GFP in AgRP neurons were detected without immunostaining.

The test system of data set [7] is TET3. Put plainly: TET3 protein stability (cycloheximide) in MDMs. It is filed as cell-based, human. The following applies: 10 μM, with cycloheximide. The protocol: For TET protein stability assay of MDMs, cells in 24-well plates were incubated with vehicle or Bobcat339 at a final concentration of 10 μM for 3 h, followed by addition of cycloheximide (CHX, Cell Signaling, 2112) at a final concentration of 50 μg/mL. Proteins were harvested at 0, 2, 4, and 6 hours after addition of CHX.

For the compound `Nc1nc(=O)n(-c2cccc(-c3ccccc3)c2)cc1Cl` [Bobcat339, 4-Amino-1-[1,1′-biphenyl]-3-yl-5-chloro-2(1H)-pyrimidinone], in data set [1], the adverse pathology result is listed as “minimal adverse pathology”. In addition, the food intake entry in data set [2] is recorded as “increase food intake”. Further, in data set [3] (10 μM), the TET2 protein level result is listed as “not affected; also recorded: not TET2”. The TET2 protein level entry in data set [3] (10 mM (so in the source)) was “not significantly affected”. The “Tet3 mRNA” value in data set [4] is reported as “without altering its mRNA abundance; also recorded: no significant difference in expression between the groups”. In data set [5] (drinking water or i.p.), the feeding entry is reported as “induced hyperphagia”, the liver toxicity entry is “without showing evidence of liver toxicity” and the resting energy expenditure entry is “decreases resting energy expenditure”. The “appetite stimulation by route” value in data set [5] (oral and intraperitoneal) is “able to stimulate appetite via multiple routes of administration”. Besides, the TET2 expression result in data set [6] is “did not significantly affect TET2 expression”. Moreover, the TET3 protein stability entry in data set [7] is “reduced the steady-state level of TET3 much more dramatically than that of TET2”.

The record behind these values is patent US20260355199A1, “COMPOSITIONS AND METHODS FOR TREATING OR PREVENTING NONALCOHOLIC STEATOHEPATITIS (NASH), ANOREXIA, DEPRESSION, ENDOMETRIOSIS, AND OTHER DISEASES OR DISORDERS” (priority 2022, published 2026).
